Test results: patent US12612661B2, “Compositions and methods for assessing the efficacy of inhibitors of neurotransmitter transporters” (DENOVO BIOPHARMA LLC, priority 2020, dated 2026)

Experiments:
C. elegans = details: oxidative stress; ANK3/unc-44 expression necessary; cited from earlier work
NET = molecular target: T1, NET (Homo sapiens, UniProt P23975); assay: In vitro competition binding, membranes from HEK cell lines overexpressing NET; details: radioligand at its Kd concentration; IC50 only in FIG. 1A table
T1 construct: expressed in transfected cells; host or cells: HEK cell line overexpressing the transporter; membranes
T1 sequence (P23975 whole entry): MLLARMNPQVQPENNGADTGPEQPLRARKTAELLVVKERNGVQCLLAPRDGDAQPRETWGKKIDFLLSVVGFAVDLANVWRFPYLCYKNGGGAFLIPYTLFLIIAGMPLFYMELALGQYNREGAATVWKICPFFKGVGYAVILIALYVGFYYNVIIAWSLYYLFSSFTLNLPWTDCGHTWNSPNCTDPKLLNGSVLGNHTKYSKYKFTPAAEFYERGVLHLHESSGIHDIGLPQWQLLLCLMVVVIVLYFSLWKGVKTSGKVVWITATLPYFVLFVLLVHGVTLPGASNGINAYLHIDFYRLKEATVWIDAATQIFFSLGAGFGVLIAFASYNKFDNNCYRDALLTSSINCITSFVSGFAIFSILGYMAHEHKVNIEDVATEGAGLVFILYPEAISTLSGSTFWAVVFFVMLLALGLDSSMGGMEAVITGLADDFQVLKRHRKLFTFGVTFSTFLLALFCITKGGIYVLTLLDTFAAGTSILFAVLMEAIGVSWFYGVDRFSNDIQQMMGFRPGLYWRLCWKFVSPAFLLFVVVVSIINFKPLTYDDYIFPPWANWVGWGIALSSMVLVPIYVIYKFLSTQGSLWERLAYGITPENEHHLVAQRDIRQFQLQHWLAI
Excerpt: (§1) FIG. 1 depicts exemplary DB104 structure, preclinical result, and clinical trial design. […] In vitro Binding Result: Competition binding experiments were utilized to determine the in vitro binding potencies (IC50 values) of BMS-820836 for SERT, DAT, and NET. Membranes prepared from human embryonic kidney (HEK) cell lines overexpressing each transporter were employed in the assays. Radioligands were used at their respective affinity constant (Kd) concentrations for each transporter to enable direct comparisons of the IC50 values between assays. Monoamine Reupdate inhibition: Cell-based assays were used to determine the ability of BMS-820836 to inhibit reuptake of 3H-labeled dopamine ([^3H]DA), norepinephrine ([^3H]NE), and serotonin ([^3H]5-HT).

patients with MDD [1] = assay: Phase 2b efficacy studies CN162006 and CN162007, MADRS total score, analysed by rs12217173 genotype; format: in vivo, human
Description: The Phase 2b program for DB104 consists of two efficacy studies (CN162006 and CN162007), and both efficacy studies have a similar design and include patients with MDD. CN162006 is flexible-dose study where patients with a history of inadequate response to at least one but less than four antidepressants and one prospective treatment (duloxetine) are switched to flexibly-dosed DB104 (0.5-2 mg/d) or remain on duloxetine (Bhagwagar Z. et al. 2015). CN162007 is a fixed dose, dose-response study where patients with a history of inadequate response to at least one but less than four antidepressants and one prospective treatment (duloxetine/escitalopram) are switched to fixed doses of DB104 (0.25, 0.5, 1, 2 mg/day) or remain on duloxetine/escitalopram (FIG. 1B and 1C). […] (Bhagwagar Z. et al. 2015.)
We were provided with a large number of whole blood samples that were collected from the above phase II clinical trials (CN162-006 and CN162-007), and these samples corresponded to 233 unique patients that had received DB104 and completed the trial adequately to measure their response to treatment. Thus, germline DNA samples extracted from blood of patients enrolled in these two trials were used to identify pharmacogenetic biomarker for DB104. For the discovery phase, 188 samples were selected, and the remaining 45 samples would be left for validating any potential SNPs using PCR. The discover and validation datasets were balanced for race and dose/trial number. In discovery phase, 188 samples from DB104 treatment group were genotyped using the Illumina 4.5 million whole genome SNP arrays. Two (2) out of the 188 samples failed QC and were excluded from the genome-wide analysis but added to the validation set. From this genome wide screen from 186 samples, we have identified SNP rs12217173 which has a p-value of 6.609×10^−8, which is very close to genome-wide significance cut-off of 5×10^−8, especially given the limited sample size of this study.
To confirm the finding of rs12217173 as possible pharmacogenetic biomarker to predict DB104 efficacy, we next measured its genotype with Taqman SNP assay using the validation set which consists 47 patients, including two additional samples failed in genome-wide scan QC but passed real time PCR QC. […] Thus, patients with GG genotype were defined as the responders and patients carrying AA or AG genotype are defined as non-responders to DB104 treatment.
To examine whether rs12217173 is merely a prognostic biomarker for the disease instead of specific pharmacogenomic biomarker for DB104, DNA samples from 182 patients from the control group treated with duloxetine/escitalopram were genotyped using the Taqman SNP assays. […] Therefore, rs12217173 associated improvement in MADRS is related to DB104 treatment, and rs12217173 appears to be a pharmacogenomics biomarker for predicting DB104's anti-depression activity, and thus it is named as DGM4 (Denovo Genomic Marker 4).
CN162006 is flexible-dose study where DB104 doses ranged from 0.5-2 mg/d, and CN162007 is a fixed dose, dose-response study where patients were treated with doses of DB104 at 0.25, 0.5, 1, or 2 mg/day. Due to the limitation on samples available for the genome-wide study, the analysis described in previous section was not treating patients taking different doses of DB104 differently. In order to refine our analysis, we have further evaluated the effect of DB104 dose in these two studies. In CN162006, the mean and median average dose per day is 1.5 mg, and 94% patients received doses of 1 to 2 mg per day.

DAT = molecular target: T2, DAT (Homo sapiens, UniProt Q01959); assay: In vitro competition binding, membranes from HEK cell lines overexpressing DAT; details: radioligand at its Kd concentration; IC50 only in FIG. 1A table
T2 construct: expressed in transfected cells; host or cells: HEK cell line overexpressing the transporter; membranes
T2 sequence (Q01959 whole entry): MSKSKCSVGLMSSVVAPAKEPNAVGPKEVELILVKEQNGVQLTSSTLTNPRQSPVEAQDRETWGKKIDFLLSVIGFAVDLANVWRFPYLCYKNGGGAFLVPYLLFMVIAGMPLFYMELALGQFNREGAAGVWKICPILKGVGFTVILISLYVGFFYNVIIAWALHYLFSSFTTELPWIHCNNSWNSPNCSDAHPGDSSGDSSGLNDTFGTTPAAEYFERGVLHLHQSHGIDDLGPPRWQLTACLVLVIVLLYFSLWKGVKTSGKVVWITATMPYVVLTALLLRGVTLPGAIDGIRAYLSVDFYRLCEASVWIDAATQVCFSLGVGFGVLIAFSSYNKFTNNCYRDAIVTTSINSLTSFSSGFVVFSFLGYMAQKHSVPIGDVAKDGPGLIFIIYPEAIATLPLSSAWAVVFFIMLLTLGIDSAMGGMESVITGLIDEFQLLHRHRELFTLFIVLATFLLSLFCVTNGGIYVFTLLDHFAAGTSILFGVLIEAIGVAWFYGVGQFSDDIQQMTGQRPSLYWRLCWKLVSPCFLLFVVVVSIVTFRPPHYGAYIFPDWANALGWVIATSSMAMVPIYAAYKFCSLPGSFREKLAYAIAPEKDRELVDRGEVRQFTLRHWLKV
Excerpt: as §1

patients with MDD [2] = details: overall population, CN162006 and CN162007; cited from earlier work
HEK293/hDAT cells = molecular target: T3, HEK293/hDAT cells (Homo sapiens, UniProt Q01959); assay: Cell-based monoamine reuptake inhibition, [3H]DA uptake; details: IC50 only in FIG. 1A table
T3 construct: expressed in transfected cells; host or cells: HEK293/hDAT cells
T3 sequence (Q01959 whole entry): as above
Excerpt: as §1

SERT = molecular target: T4, SERT (Homo sapiens, UniProt P31645); assay: In vitro competition binding, membranes from HEK cell lines overexpressing SERT; details: radioligand at its Kd concentration; IC50 only in FIG. 1A table
T4 construct: expressed in transfected cells; host or cells: HEK cell line overexpressing the transporter; membranes
T4 sequence (P31645 whole entry): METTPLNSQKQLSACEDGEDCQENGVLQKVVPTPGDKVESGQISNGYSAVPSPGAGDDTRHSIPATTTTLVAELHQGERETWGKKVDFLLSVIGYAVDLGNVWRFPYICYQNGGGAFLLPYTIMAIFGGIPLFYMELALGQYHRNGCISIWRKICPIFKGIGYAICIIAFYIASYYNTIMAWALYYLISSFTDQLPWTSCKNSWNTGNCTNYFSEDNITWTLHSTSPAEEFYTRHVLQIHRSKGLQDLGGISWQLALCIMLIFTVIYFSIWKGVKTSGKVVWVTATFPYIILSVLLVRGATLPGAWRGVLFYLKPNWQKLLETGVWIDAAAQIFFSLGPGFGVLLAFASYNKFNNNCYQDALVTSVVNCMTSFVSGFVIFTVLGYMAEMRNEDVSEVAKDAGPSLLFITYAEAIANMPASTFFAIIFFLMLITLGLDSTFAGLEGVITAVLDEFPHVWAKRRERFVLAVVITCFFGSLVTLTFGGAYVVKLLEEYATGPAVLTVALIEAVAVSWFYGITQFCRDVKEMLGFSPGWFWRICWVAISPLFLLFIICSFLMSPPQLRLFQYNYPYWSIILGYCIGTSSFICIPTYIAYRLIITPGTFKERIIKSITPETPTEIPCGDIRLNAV
Excerpt: as §1

[3] = phase 2 clinical studies; cited from earlier work
[4] = GG genotype, week 5 and 6, excluding 0.25 and 0.5 mg

Compound | lifespan (C. elegans) | saturation of NET binding sites in competition binding (NET) | efficacy by dose in patients carrying GG genotype (patients with MDD [1]; CN162007, 0.25, 0.5, 1, 2 mg/day) | MADRS Remission Rate vs SOC treatment group (patients with MDD [1]; [4]) | MADRS Response Rate vs SOC treatment group (patients with MDD [1]; [4]) | MADRS total score reduction vs SOC treatment group (patients with MDD [1]; [4]) | MADRS score change, GG vs AA or AG genotype (patients with MDD [1]; discovery and validation datasets combined) | improvement on MADRS change from the baseline, GG vs AA or AG genotype and vs standard of care (patients with MDD [1]; discovery set (186 patients), GG allele of rs12217173) | MADRS, DB104 treatment group vs SOC treatment group (patients with MDD [1]; pooled 006 and 007 at 1 mg and 2 mg, all genotypes, any time point) | MADRS score reduction from the baseline (patients with MDD [1]; validation set (47 patients), DB104-treated patients carrying GG at rs12217173) [points] | MADRS score reduction from the baseline (patients with MDD [1]; validation set, DB104-treated patients carrying AA or AG genotype) | saturation of DAT binding sites in competition binding (DAT) | MADRS total score change from baseline at week 6 (primary endpoint), DB104 vs. continuation of duloxetine/escitalopram (patients with MDD [2]) | inhibition of uptake of [3H]DA (HEK293/hDAT cells) | saturation of SERT binding sites in competition binding (SERT) | discontinuations due to adverse events [3] | tolerability [3]
CN1CCN2c3ccccc3Cc3ccccc3C2C1 (centres unmarked) [mianserin] | increase lifespan |  |  |  |  |  |  |  |  |  |  |  |  |  |  |  | 
CN1Cc2cc(-c3ccc(N)nn3)ccc2[C@H](c2ccc3ccccc3c2)C1 [DB104, liafensine] |  | completely saturated | 1 mg and 2 mg group exhibited similar efficacy, and both are much better than 0.25 mg and 0.5 mg group | statistical significance | statistical significance | statistical significance | much improved MADRS score change | much better improvement | no significant differences | ~16 | eight | completely saturated | neither study demonstrated significant improvement | potently and completely inhibited | completely saturated | no evidence of dose-dependent discontinuations due to adverse events | well tolerated
